The record followed here is ChEMBL document CHEMBL1201862, “PubChem BioAssay data set” (2004).

Activity calls are given as the source filed them. Bounds are passed on as bounds.

The nature of test [1]: nonselective inhibitors of cellular cAMP signaling, dose response, counter-screen for MC4R biased antagonist project, cell-based, TR-FRET cAMP detection (AID 602305).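 Also: U2OS cells stimulated with forskolin near its EC80 as the cAMP inducer; potency is for inhibition of forskolin-stimulated cAMP signaling.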 It is filed as functional.
Test [2] concerns the target Heat shock protein HSP 90-alpha (Homo sapiens, UniProt P07900). It is filed as functional, organism-based.
For test [3], the target named is T1, Type-1 angiotensin II receptor (Homo sapiens, UniProt P30556).
T1 sequence (P30556 whole entry): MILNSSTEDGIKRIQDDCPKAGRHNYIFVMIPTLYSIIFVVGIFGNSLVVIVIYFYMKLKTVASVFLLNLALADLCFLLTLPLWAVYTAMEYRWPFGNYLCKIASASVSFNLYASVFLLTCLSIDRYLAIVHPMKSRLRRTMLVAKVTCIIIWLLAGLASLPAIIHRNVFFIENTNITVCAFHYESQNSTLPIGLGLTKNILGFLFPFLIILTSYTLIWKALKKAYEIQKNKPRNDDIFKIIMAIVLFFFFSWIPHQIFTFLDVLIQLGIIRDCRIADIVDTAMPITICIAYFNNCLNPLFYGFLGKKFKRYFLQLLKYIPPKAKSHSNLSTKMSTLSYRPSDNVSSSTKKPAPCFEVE
The test can be described thus: AT1 receptor antagonists, dose response, selectivity assay for APJ receptor antagonist project, cell-based, uHTS hits (AID 463214).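 Also: antagonist potency against angiotensin II stimulated AT1 response.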 The test is classed as functional.

The target in test [4] is T2, Fatty acid synthase (Homo sapiens, UniProt P49327). As to the kind of experiment: FAS thioesterase domain inhibitors, dose response, biochemical, kinetic fluorescence intensity (AID 624326).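 Also: rate of fluorescence rise from hydrolysis of a fluorogenic O-methyl fluorescein ester substrate.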 It is filed as functional.
T2 sequence (P49327 whole entry, the tested form may be a part): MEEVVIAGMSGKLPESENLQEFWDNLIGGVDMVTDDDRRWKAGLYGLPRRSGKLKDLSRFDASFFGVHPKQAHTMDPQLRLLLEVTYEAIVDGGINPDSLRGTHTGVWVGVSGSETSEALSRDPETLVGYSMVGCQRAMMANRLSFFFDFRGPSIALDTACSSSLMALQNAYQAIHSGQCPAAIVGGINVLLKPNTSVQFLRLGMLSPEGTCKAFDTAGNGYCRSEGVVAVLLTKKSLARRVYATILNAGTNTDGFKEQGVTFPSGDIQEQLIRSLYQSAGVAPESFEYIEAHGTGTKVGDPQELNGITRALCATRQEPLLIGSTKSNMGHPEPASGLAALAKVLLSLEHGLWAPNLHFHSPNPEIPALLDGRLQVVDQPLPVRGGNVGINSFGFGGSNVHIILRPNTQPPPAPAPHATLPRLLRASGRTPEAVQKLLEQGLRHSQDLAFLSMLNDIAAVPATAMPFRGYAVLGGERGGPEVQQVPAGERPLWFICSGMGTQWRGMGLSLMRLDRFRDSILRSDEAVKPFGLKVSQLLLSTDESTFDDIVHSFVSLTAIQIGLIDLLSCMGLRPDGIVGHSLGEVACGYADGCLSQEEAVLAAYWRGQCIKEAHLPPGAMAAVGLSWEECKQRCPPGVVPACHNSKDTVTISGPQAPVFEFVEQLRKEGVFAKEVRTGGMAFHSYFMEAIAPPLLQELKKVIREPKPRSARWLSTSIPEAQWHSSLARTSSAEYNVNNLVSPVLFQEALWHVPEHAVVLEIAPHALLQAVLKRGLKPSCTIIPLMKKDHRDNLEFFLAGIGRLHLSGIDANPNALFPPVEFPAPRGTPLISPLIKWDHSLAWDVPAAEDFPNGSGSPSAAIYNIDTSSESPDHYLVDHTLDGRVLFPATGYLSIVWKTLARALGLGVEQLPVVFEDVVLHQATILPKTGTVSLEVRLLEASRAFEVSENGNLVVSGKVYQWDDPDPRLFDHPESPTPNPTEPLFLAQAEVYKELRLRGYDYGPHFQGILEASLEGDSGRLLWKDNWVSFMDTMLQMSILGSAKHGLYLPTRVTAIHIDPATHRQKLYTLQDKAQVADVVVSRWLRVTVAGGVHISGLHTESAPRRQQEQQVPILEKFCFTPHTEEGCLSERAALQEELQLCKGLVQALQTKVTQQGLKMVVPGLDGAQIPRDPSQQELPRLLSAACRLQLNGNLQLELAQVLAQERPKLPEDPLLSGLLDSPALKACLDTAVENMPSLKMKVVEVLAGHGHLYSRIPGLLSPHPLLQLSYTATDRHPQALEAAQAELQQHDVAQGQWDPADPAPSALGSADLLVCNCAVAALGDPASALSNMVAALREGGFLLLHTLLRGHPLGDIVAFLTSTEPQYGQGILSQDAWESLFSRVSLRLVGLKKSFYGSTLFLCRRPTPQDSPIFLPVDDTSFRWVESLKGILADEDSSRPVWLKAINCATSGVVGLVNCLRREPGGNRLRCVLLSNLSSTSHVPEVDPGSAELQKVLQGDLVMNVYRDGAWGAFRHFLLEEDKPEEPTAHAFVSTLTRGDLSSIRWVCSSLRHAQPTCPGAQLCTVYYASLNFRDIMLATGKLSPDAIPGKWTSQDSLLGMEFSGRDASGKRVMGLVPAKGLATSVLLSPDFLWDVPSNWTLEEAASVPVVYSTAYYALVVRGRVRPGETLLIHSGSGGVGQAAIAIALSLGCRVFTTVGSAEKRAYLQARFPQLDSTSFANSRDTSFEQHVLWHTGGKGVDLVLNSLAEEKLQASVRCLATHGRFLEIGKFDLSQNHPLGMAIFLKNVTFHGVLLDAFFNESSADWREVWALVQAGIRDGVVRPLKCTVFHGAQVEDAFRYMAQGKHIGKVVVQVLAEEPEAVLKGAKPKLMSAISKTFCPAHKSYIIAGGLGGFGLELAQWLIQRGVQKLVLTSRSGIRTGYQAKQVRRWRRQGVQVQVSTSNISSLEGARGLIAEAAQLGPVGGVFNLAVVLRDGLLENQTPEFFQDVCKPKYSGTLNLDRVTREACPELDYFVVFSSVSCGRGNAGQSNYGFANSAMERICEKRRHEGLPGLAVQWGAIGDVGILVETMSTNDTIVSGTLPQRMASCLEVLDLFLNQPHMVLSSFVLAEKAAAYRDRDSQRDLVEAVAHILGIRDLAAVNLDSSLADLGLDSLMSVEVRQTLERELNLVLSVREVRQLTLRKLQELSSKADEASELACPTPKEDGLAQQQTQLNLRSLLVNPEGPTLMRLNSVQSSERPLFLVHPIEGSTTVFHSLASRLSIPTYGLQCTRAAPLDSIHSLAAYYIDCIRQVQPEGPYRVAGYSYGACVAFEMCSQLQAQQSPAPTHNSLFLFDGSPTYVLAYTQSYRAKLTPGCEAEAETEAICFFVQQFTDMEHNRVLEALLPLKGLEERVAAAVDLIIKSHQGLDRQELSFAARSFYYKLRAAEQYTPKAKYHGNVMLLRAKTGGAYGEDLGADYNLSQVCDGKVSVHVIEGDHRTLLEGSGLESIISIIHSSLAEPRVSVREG
Test [5] deals with T3, Rac GTPase-activating protein 1 (Homo sapiens, UniProt Q9H0H5).
T3 sequence (Q9H0H5 whole entry): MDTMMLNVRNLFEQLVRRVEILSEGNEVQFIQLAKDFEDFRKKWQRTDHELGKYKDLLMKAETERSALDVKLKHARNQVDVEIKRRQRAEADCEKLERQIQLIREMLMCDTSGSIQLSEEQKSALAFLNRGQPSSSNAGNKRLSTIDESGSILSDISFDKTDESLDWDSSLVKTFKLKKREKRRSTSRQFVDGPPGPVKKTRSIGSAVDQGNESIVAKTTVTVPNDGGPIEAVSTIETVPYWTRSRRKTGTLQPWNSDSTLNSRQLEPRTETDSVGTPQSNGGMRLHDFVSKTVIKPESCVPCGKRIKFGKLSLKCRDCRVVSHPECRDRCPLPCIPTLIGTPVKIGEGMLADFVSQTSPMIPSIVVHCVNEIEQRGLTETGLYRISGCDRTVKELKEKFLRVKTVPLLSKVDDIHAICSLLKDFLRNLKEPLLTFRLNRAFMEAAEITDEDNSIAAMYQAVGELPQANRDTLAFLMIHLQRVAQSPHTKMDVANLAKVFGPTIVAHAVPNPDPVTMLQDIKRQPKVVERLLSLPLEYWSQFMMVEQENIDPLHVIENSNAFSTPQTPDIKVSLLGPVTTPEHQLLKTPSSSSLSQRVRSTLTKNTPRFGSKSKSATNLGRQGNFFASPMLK
As to the kind of experiment: MgcRacGAP GTPase-activating activity inhibitors, confirmation, biochemical, ADP Hunter fluorescence, primary and confirmatory (AID 624330). It is filed as functional.

Test [6] deals with Beta Lactamase (Pseudomonas aeruginosa, UniProt Q932Y6). The test can be described thus: beta-lactamase reporter inhibitor potency, dose response, artefact control for TLR9-MyD88 binding inhibitor project, BLA reporter cells, FRET fluorescence (AID 588341).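 Also: cell based assay in CHO-K1 cells stably expressing beta-lactamase.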 It is filed as cell-based.
Beta Lactamase, sequence (Q932Y6 whole entry, the tested form may be a part): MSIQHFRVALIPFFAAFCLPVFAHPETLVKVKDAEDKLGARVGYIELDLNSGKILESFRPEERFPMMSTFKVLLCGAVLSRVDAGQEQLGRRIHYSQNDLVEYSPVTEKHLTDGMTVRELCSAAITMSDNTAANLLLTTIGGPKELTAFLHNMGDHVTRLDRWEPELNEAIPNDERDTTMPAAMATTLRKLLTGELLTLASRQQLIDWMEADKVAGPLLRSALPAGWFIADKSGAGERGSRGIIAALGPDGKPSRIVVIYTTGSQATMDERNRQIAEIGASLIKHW
Test [7] has as its target T2, Fatty acid synthase. The test can be described thus: FAS thioesterase domain inhibitors, dose response, biochemical, endpoint fluorescence intensity, uHTS hits (AID 624327).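 Also: fluorescence from hydrolysis of an O-methyl fluorescein acyl ester substrate by the enzyme.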 The test is classed as functional.
For test [8], the target named is Melanocortin receptor 4 (Homo sapiens, UniProt P32245). As to the kind of experiment: MC4R antagonist potency on cAMP, dose response, cell-based, TR-FRET, biased antagonists (AID 602298).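 Also: antagonist potency against agonist-stimulated cAMP production.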 It is filed as functional. Background: In TR-FRET formats the signal depends on donor and acceptor labels being close together.
Melanocortin receptor 4, sequence (P32245 whole entry): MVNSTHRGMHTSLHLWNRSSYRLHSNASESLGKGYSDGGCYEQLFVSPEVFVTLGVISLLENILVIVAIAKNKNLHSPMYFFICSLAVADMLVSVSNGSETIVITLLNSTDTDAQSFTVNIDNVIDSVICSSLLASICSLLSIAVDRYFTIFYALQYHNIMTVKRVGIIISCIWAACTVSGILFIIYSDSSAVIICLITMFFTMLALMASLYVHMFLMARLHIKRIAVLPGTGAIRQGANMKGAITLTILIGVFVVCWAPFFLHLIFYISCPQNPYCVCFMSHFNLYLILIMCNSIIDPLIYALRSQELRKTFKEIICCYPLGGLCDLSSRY
In test [9] the target is E3 ubiquitin-protein ligase Mdm2 (Homo sapiens, UniProt Q00987). As to the kind of experiment: enhancers of MDM2-luciferase reporter signal, concentration-effect titration, project on inhibitors of MDM2 ubiquitin ligase, cellular assay, luminescent readout, 384-well plate format (AID 1394).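 Also: MDM2 E3 inhibitors raise luminescence so EC50 is for signal enhancement.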 It is filed as functional. (In general: A reporter such as luciferase makes a cellular process visible.)
E3 ubiquitin-protein ligase Mdm2, sequence (Q00987 whole entry): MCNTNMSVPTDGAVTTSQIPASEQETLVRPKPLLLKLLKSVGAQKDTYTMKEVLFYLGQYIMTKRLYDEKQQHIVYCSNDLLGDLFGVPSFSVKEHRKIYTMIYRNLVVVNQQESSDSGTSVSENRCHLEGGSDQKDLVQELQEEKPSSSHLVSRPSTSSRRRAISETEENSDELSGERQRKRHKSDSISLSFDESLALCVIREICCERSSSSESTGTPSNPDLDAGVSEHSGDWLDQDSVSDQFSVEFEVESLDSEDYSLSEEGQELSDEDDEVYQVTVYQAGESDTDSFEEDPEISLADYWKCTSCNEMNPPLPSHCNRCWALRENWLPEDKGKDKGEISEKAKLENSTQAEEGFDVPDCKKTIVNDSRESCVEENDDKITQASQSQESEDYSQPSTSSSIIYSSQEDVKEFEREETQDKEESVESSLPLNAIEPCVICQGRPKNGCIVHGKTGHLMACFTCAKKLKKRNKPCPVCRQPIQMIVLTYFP

The nature of test [10]: Shn3 3'UTR reporter inhibitors, dose response, cell-based, Clone20 osteoblasts, firefly luciferase, cherry-picked (AID 624132).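 Also: firefly luciferase luminescence from reporter carrying the Shn3 3'UTR in osteoblasts.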 The test is classed as functional.
Test [11] is described as follows: cytotoxicity in HEK-293T cells, dose response, cytotoxicity control for TCR NF-kB inhibitor project, luminescence, T-cell screen hits (AID 489026).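 Also: cells exposed to compound about 14 hours before the viability readout.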 The test is classed as functional, cell-based.
The nature of test [12]: control 3'UTR Renilla luciferase suppression, dose response, counter-screen for Shn3 inhibitor project, cell-based, Clone20-Shn3RL, cherry-picked (AID 624133). It is filed as functional. On the technique in general: Counterscreens check selectivity or assay interference.
Test [13] can be described thus: HeLa cell cytotoxicity, dose response, cytotoxicity control for MgcRacGAP inhibitor project (AID 624300). It is filed as functional.
Test [14] addresses Beta-galactosidase (Escherichia coli, UniProt Q8VNN2). The test can be described thus: PubChem AID 485352. The test is classed as functional.
Test [15] deals with CHO. As to the kind of experiment: cytotoxicity in TLR9-MyD88 CHO cells, dose response, cytotoxicity control for TLR9-MyD88 binding inhibitor project, cell-based, luminescence (AID 588339).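 Also: CHO cells stably coexpressing TLR9 and MyD88 fusions from primary screen; compound exposure lasted 48 hours before viability readout.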 The test is classed as functional, hamster. The following applies: Cricetulus griseus.
Test [16] in a line: cytotoxicity in HEK-293T cells, dose response, cytotoxicity control for BCR NF-kB inhibitor project, luminescence, B-cell screen hits (AID 489021).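 Also: HEK-293T cells carrying an NF-kB luciferase reporter; cells exposed to compound for about 14 hours before viability readout.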 It is filed as functional, cell-based.
Test [17] deals with HEK293. The test can be described thus: cytotoxicity in HEK293T NF-kB-Luc cells, SAR follow-up, cytotoxicity control for NF-kB activator project, cell-based, resazurin fluorescence (AID 493251). The test is classed as functional. The conditions noted are these: Homo sapiens.
The subject of test [18] is Jurkat. The test can be described thus: SAR Analysis of small molecule inhibitors of T-cell specific antigen receptor-induced NF-kB activation in a Jurkat cell line using a luminescence assay - Set 2. [Related pubchem assays (depositor defined):AID435003, AID435012, AID465]. It is filed as functional, cell-based. The conditions noted are these: Homo sapiens.
Test [19] deals with HEK293. The test can be described thus: SAR Analysis of small molecule inhibitors of T-cell specific antigen receptor-induced NF-kB activation in a HEK-293T cell line using a luminescence assay - Set 2. [Related pubchem assays (depositor defined):AID435003, AID435012, AID489026]. It is filed as functional, cell-based. The following applies: Homo sapiens.
The target in test [20] is DNA topoisomerase (Yersinia pestis, UniProt A0A2S9PM60). The test can be described thus: Y. pestis Topo-I inhibitors, cleavage product readout, dose response, biochemical, cherry-pick (AID 588525).
DNA topoisomerase, sequence (A0A2S9PM60 whole entry): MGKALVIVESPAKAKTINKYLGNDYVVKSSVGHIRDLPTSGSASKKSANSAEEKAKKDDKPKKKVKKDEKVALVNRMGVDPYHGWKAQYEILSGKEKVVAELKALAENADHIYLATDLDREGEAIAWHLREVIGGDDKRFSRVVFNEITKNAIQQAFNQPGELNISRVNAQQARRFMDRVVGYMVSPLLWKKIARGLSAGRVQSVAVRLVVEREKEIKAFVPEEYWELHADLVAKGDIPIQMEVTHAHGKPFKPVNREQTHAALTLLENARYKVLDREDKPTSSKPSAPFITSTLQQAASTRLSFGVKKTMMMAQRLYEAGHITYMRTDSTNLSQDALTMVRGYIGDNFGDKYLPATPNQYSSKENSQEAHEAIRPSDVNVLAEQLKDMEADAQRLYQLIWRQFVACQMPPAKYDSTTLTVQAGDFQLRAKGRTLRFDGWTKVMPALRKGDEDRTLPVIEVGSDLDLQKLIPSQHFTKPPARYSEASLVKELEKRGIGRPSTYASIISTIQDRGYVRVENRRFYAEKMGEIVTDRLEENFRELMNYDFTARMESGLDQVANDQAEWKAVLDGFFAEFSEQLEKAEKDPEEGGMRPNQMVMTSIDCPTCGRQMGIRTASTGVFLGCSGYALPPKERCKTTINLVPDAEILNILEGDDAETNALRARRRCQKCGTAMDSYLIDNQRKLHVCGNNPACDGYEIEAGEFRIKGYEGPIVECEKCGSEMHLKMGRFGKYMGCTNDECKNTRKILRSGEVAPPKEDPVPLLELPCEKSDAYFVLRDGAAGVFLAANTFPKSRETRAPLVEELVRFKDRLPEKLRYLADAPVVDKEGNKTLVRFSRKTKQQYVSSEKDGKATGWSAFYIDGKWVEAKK

On to `COc1ccc(NC(=O)/C(Cl)=C(/Cl)[S+]([O-])Cc2ccc(Cl)cc2)cn1` (stereo not given), for which the IC50 was > 64.6 µM (inactive) in [1]; 2.35 µM (active) in test [3]; 2.83 µM (active) in test [4]; 16.9 µM (active) in test [5]; 7.83 µM (active) in test [6]; 5.57 µM (active) in test [7]. In addition, the IC50 was 9.97 µM (active) in test [8], 41.7 µM (inactive) in [11] and 0.463 µM (active) in test [15]. Also, the results for the AC50 in [2], in test [10] and in test [12] were 0.885 µM (active), 1.34 µM (active) and 3.48 µM (active), respectively. Also, the values for the EC50 in [9] and in [14] were 0.62 µM (active) and > 40 µM (inactive), respectively. Also, the CC50 in test [13] was 100 µM (active).
Regarding `O=C(Nc1nc2c(Br)cc(Br)cc2c(=O)s1)c1ccco1`, the IC50 in test [16] was > 80 µM (inactive); in [17] it was > 80 µM (inactive); in [18], 6.7 µM (active); in test [19], > 80 µM (inactive).
Consider `CC(C)CC1NC(=O)c2cc3ccccc3cc2-n2c1nc1cc(Cl)ccc1c2=O` (stereo not given), for which, in test [20], the AC50 is 10.2 µM (active).

For orientation: IC50 means the concentration that gives 50% inhibition. What is called AC50 is the concentration at which the activity in the assay is half-maximal. In general, EC50 refers to the midpoint of the concentration-response curve. The CC50 is the concentration that lowers cell viability or growth by half.
